Measurements reported in patent US12077503B2, “Substituted cyclic amides and their use as herbicides” (FMC CORPORATION, priority 2015, dated 2024).

Columns and labels:
Format in all cases: in vivo
[1] = tested on: redroot pigweed (Amaranthus retroflexus); assay: Test G Pre-Emergence Protocol; conditions: Amaranthus retroflexus, pre-emergence, 312 h, evaluated after 13 days; for pest or weed control at 15.625 g/ha: 15.625 g ai/ha; for pest or weed control at 15.625 g/ha / pest or weed control at 250 g/ha: read-out: Pigweed, Redroot damage rating (100=total damage to plant; 0=no damage to plant); for pest or weed control at 62.5 g/ha: 62.5 g ai/ha, 100=total damage to plant, 0=no damage to plant, read-out: plant damage rating, Pigweed, Redroot; for pest or weed control at 250 g/ha: 250 g ai/ha
Summary of the method: (§1)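 Test compound in 0.5% Tween 20 acetone/water (50:50) was applied at three rates (15.625, 62.5, 250 g/ha) to soil sown one day earlier. After 13 days plants were scored for injury, where 0 means unaffected and 100 means completely damaged.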

[2] = tested on: velvetleaf (Abutilon theophrasti); assay: Test G Pre-Emergence Protocol; conditions: Abutilon theophrasti, pre-emergence, 312 h, evaluated after 13 days; for pest or weed control at 15.625 g/ha: 15.625 g ai/ha; for pest or weed control at 15.625 g/ha / pest or weed control at 250 g/ha: read-out: Velvetleaf damage rating (100=total damage to plant; 0=no damage to plant); for pest or weed control at 62.5 g/ha: 62.5 g ai/ha, 100=total damage to plant, 0=no damage to plant, read-out: plant damage rating, Velvetleaf; for pest or weed control at 250 g/ha: 250 g ai/ha
Summary of the method: as §1

[3] = tested on: giant foxtail (Setaria faberi); assay: Test G Pre-Emergence Protocol; conditions: Setaria faberi, pre-emergence, 312 h, evaluated after 13 days; for pest or weed control at 15.625 g/ha: 15.625 g ai/ha; for pest or weed control at 15.625 g/ha / pest or weed control at 250 g/ha: read-out: Foxtail, Giant damage rating (100=total damage to plant; 0=no damage to plant); for pest or weed control at 62.5 g/ha: 62.5 g ai/ha, 100=total damage to plant, 0=no damage to plant, read-out: plant damage rating, Foxtail, Giant; for pest or weed control at 250 g/ha: 250 g ai/ha
Summary of the method: as §1

[4] = tested on: ivy-leaved morning glory (Ipomoea hederacea); assay: Test G Pre-Emergence Protocol; conditions: Ipomoea, pre-emergence, 312 h, evaluated after 13 days; for pest or weed control at 15.625 g/ha: 15.625 g ai/ha, read-out: Morning-glory, Ivy-leaved damage rating (100=total damage to plant; 0=no damage to plant); for pest or weed control at 62.5 g/ha: 62.5 g ai/ha, 100=total damage to plant, 0=no damage to plant, read-out: plant damage rating, Morningglory, Ivy-leaved; for pest or weed control at 250 g/ha: 250 g ai/ha, read-out: Morningglory, Ivy-leaved damage rating (100=total damage to plant; 0=no damage to plant)
Summary of the method: as §1

[5] = tested on: corn (Zea mays); assay: Test G Pre-Emergence Protocol; conditions: Zea mays, pre-emergence, 312 h, evaluated after 13 days; for plant injury at 15.625 g/ha: 15.625 g ai/ha; for plant injury at 15.625 g/ha / plant injury at 250 g/ha: read-out: Corn damage rating (100=total damage to plant; 0=no damage to plant); for plant injury at 62.5 g/ha: 62.5 g ai/ha, 100=total damage to plant, 0=no damage to plant, read-out: plant damage rating, Corn; for plant injury at 250 g/ha: 250 g ai/ha
Summary of the method: as §1

[6] = tested on: barnyardgrass (Echinochloa crus-galli); assay: Test G Pre-Emergence Protocol; conditions: Echinochloa crus-galli, pre-emergence, 312 h, evaluated after 13 days; for pest or weed control at 15.625 g/ha: 15.625 g ai/ha, read-out: Barnyard grass damage rating (100=total damage to plant; 0=no damage to plant); for pest or weed control at 62.5 g/ha: 62.5 g ai/ha, 100=total damage to plant, 0=no damage to plant, read-out: plant damage rating, Barnyardgrass; for pest or weed control at 250 g/ha: 250 g ai/ha, read-out: Barnyardgrass damage rating (100=total damage to plant; 0=no damage to plant)
Summary of the method: as §1

[7] = tested on: redroot pigweed (Amaranthus retroflexus); assay: Test G Post-Emergence Protocol; conditions: Amaranthus retroflexus, post-emergence, 312 h; for pest or weed control at 15.625 g/ha: 15.625 g ai/ha, evaluated after 13 days (100=total damage to plant; 0=no damage to plant), read-out: Pigweed, Redroot damage rating; for pest or weed control at 62.5 g/ha: 62.5 g ai/ha, read-out: Pigweed, Redroot damage rating (100=total damage to plant; 0=no damage to plant); for pest or weed control at 62.5 g/ha / pest or weed control at 250 g/ha: evaluated after 13 days; for pest or weed control at 250 g/ha: 250 g ai/ha, read-out: damage to plant, Pigweed, Redroot (100=total damage to plant; 0=no damage to plant)
Summary of the method: (§2)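 Post-emergence herbicidal damage, scored visually 0–100 at 13 days. Application at 15.625, 62.5 or 250 g/ha onto 8-day-old plants grown under glasshouse control.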

[8] = tested on: velvetleaf (Abutilon theophrasti); assay: Test G Post-Emergence Protocol; conditions: Abutilon theophrasti, post-emergence, 312 h; for pest or weed control at 15.625 g/ha: 15.625 g ai/ha, evaluated after 13 days (100=total damage to plant; 0=no damage to plant), read-out: Velvetleaf damage rating; for pest or weed control at 62.5 g/ha: 62.5 g ai/ha, read-out: Velvetleaf damage rating (100=total damage to plant; 0=no damage to plant); for pest or weed control at 62.5 g/ha / pest or weed control at 250 g/ha: evaluated after 13 days; for pest or weed control at 250 g/ha: 250 g ai/ha, read-out: damage to plant, Velvetleaf (100=total damage to plant; 0=no damage to plant)
Summary of the method: as §2

[9] = tested on: giant foxtail (Setaria faberi); assay: Test G Post-Emergence Protocol; conditions: Setaria faberi, post-emergence, 312 h; for pest or weed control at 15.625 g/ha: 15.625 g ai/ha, evaluated after 13 days (100=total damage to plant; 0=no damage to plant), read-out: Foxtail, Giant damage rating; for pest or weed control at 62.5 g/ha: 62.5 g ai/ha, read-out: Foxtail, Giant damage rating (100=total damage to plant; 0=no damage to plant); for pest or weed control at 62.5 g/ha / pest or weed control at 250 g/ha: evaluated after 13 days; for pest or weed control at 250 g/ha: 250 g ai/ha, read-out: damage to plant, Foxtail, Giant (100=total damage to plant; 0=no damage to plant)
Summary of the method: as §2

[10] = tested on: ivy-leaved morning glory (Ipomoea hederacea); assay: Test G Post-Emergence Protocol; conditions: Ipomoea, post-emergence, 312 h; for pest or weed control at 15.625 g/ha: 15.625 g ai/ha, evaluated after 13 days (100=total damage to plant; 0=no damage to plant), read-out: Morningglory, Ivy-leaved damage rating; for pest or weed control at 62.5 g/ha: 62.5 g ai/ha, read-out: Morningglory, Ivy-leaved damage rating (100=total damage to plant; 0=no damage to plant); for pest or weed control at 62.5 g/ha / pest or weed control at 250 g/ha: evaluated after 13 days; for pest or weed control at 250 g/ha: 250 g ai/ha, read-out: damage to plant, Morningglory, Ivy-leaved (100=total damage to plant; 0=no damage to plant)
Summary of the method: as §2

[11] = tested on: corn (Zea mays); assay: Test G Post-Emergence Protocol; conditions: Zea mays, post-emergence, 312 h; for plant injury at 15.625 g/ha: 15.625 g ai/ha, evaluated after 13 days (100=total damage to plant; 0=no damage to plant), read-out: Corn damage rating; for plant injury at 62.5 g/ha: 62.5 g ai/ha, read-out: Corn damage rating (100=total damage to plant; 0=no damage to plant); for plant injury at 62.5 g/ha / plant injury at 250 g/ha: evaluated after 13 days; for plant injury at 250 g/ha: 250 g ai/ha, read-out: damage to plant, Corn (100=total damage to plant; 0=no damage to plant)
Summary of the method: as §2

[12] = tested on: barnyardgrass (Echinochloa crus-galli); assay: Test G Post-Emergence Protocol; conditions: Echinochloa crus-galli, post-emergence, 312 h; for pest or weed control at 15.625 g/ha: 15.625 g ai/ha, evaluated after 13 days (100=total damage to plant; 0=no damage to plant), read-out: Barnyardgrass damage rating; for pest or weed control at 62.5 g/ha: 62.5 g ai/ha, read-out: Barnyardgrass damage rating (100=total damage to plant; 0=no damage to plant); for pest or weed control at 62.5 g/ha / pest or weed control at 250 g/ha: evaluated after 13 days; for pest or weed control at 250 g/ha: 250 g ai/ha, read-out: damage to plant, Barnyardgrass (100=total damage to plant; 0=no damage to plant)
Summary of the method: as §2

Row | Structure (SMILES) | pest or weed control at 15.625 g/ha [1] [%] | pest or weed control at 62.5 g/ha [1] [%] | pest or weed control at 250 g/ha [1] [%] | pest or weed control at 15.625 g/ha [2] [%] | pest or weed control at 62.5 g/ha [2] [%] | pest or weed control at 250 g/ha [2] [%] | pest or weed control at 15.625 g/ha [3] [%] | pest or weed control at 62.5 g/ha [3] [%] | pest or weed control at 250 g/ha [3] [%] | pest or weed control at 15.625 g/ha [4] [%] | pest or weed control at 62.5 g/ha [4] [%] | pest or weed control at 250 g/ha [4] [%] | plant injury at 15.625 g/ha [5] [%] | plant injury at 62.5 g/ha [5] [%] | plant injury at 250 g/ha [5] [%] | pest or weed control at 15.625 g/ha [6] [%] | pest or weed control at 62.5 g/ha [6] [%] | pest or weed control at 250 g/ha [6] [%] | pest or weed control at 15.625 g/ha [7] [%] | pest or weed control at 62.5 g/ha [7] [%] | other results
1 | CN1C[C@H](c2ccc(C(F)(F)F)cc2)[C@@H](C(=O)Nc2ncc(Cl)cc2Cl)C1=O (racemic) [Compound 1435] | 0 | 0 | 0 | 0 | 0 | 0 | 0 | 0 | 0 | 0 | 0 | 0 | 0 | 0 | 0 | 0 | 0 | 0 | 0 | 30 | pest or weed control at 250 g/ha [7]: 30%; pest or weed control at 15.625 g/ha [8]: 0%; pest or weed control at 62.5 g/ha [8]: 0%; pest or weed control at 250 g/ha [8]: 0%; pest or weed control at 15.625 g/ha [9]: 0%; pest or weed control at 62.5 g/ha [9]: 0%; pest or weed control at 250 g/ha [9]: 0%; pest or weed control at 15.625 g/ha [10]: 0%; pest or weed control at 62.5 g/ha [10]: 0%; pest or weed control at 250 g/ha [10]: 0%; plant injury at 15.625 g/ha [11]: 0%; plant injury at 62.5 g/ha [11]: 0%; plant injury at 250 g/ha [11]: 10%; pest or weed control at 15.625 g/ha [12]: 0%; pest or weed control at 62.5 g/ha [12]: 0%; pest or weed control at 250 g/ha [12]: 0%
2 | Cc1cc([C@@H]2CN(C)C(=O)[C@H]2C(=O)Nc2cccc(F)c2F)cc(Cl)n1 (racemic) [Compound 1481] | 0 | 0 | 20 | 0 | 0 | 10 | 40 | 60 | 90 | 0 | 0 | 10 | 30 | 30 | 60 | 20 | 40 | 80 | 0 | 0 | pest or weed control at 250 g/ha [7]: 20%; pest or weed control at 15.625 g/ha [8]: 0%; pest or weed control at 62.5 g/ha [8]: 0%; pest or weed control at 250 g/ha [8]: 10%; pest or weed control at 15.625 g/ha [9]: 40%; pest or weed control at 62.5 g/ha [9]: 60%; pest or weed control at 250 g/ha [9]: 70%; pest or weed control at 15.625 g/ha [10]: 0%; pest or weed control at 62.5 g/ha [10]: 10%; pest or weed control at 250 g/ha [10]: 80%; plant injury at 15.625 g/ha [11]: 20%; plant injury at 62.5 g/ha [11]: 20%; plant injury at 250 g/ha [11]: 60%; pest or weed control at 15.625 g/ha [12]: 30%; pest or weed control at 62.5 g/ha [12]: 60%; pest or weed control at 250 g/ha [12]: 70%
3 | Cc1c(NC(=O)[C@H]2C(=O)N(C)C[C@@H]2c2ccc(C(F)(F)F)cc2)cccc1[N+](=O)[O-] (racemic) [Compound 1423] | 0 | 0 | 0 | 0 | 0 | 0 | 10 | 60 | 70 | 0 | 0 | 0 | 10 | 20 | 10 | 10 | 10 | 30 | 0 | 0 | pest or weed control at 250 g/ha [7]: 50%; pest or weed control at 15.625 g/ha [8]: 0%; pest or weed control at 62.5 g/ha [8]: 0%; pest or weed control at 250 g/ha [8]: 0%; pest or weed control at 15.625 g/ha [9]: 0%; pest or weed control at 62.5 g/ha [9]: 20%; pest or weed control at 250 g/ha [9]: 60%; pest or weed control at 15.625 g/ha [10]: 0%; pest or weed control at 62.5 g/ha [10]: 0%; pest or weed control at 250 g/ha [10]: 0%; plant injury at 15.625 g/ha [11]: 10%; plant injury at 62.5 g/ha [11]: 0%; plant injury at 250 g/ha [11]: 10%; pest or weed control at 15.625 g/ha [12]: 0%; pest or weed control at 62.5 g/ha [12]: 10%; pest or weed control at 250 g/ha [12]: 10%
